In article PMC11032351, “Epigenetic modulation through BET bromodomain inhibitors as a novel therapeutic strategy for progranulin-deficient frontotemporal dementia” (Scientific Reports, 2024):

molecular target: T1, Recombinant BRD4(BD2) (Homo sapiens, UniProt O60885); assay: TR-FRET ligand displacement, recombinant GST-BRD4(BD2); assay type: binding; details: GST-tagged, with 95% confidence interval
T1 construct: using the recombinant, individually purified bromodomains of BRD4 (GST-tagged BD1 and BD2); purchased Epicypher, Inc 15–0013
Procedure: Unless otherwise noted, experiments were performed in white, 384-well microtiter plates (Corning 3572 or PerkinElmer ProxiPlate-384 Plus) in 30 μL or 10 μL assay volume, respectively. TR-FRET measurements were acquired on a Tecan SPARK plate reader with SPARKCONTROL software version V2.1 (Tecan Group Ltd.), with the following settings: 340/50 nm excitation, 490/10 nm (Tb), 520/10 nm (FITC) emission, 100 μs delay, and 400 μs integration. The 490/10 and 520/10 nm emission channels were acquired with a 50% mirror and a dichroic 510 mirror, respectively, using independently optimized detector gain settings unless specified otherwise. The TR-FRET ratio was taken as the 520/490 nm intensity ratio on a per-well basis.
Assays were performed as described. Recombinant BRD4(BD1) and BRD4(BD2) were purchased from BPS Biosciences, Inc and Epicypher, Inc (GST-BRD4(BD1), 31,040; GST-BRD4(BD2), 15–0013, respectively). Recombinant bromodomains were diluted to 0.5 nM in assay buffer (25 mM HEPES, 150 mM NaCl, 0.5 mg/mL BSA, 0.005% TWEEN-20, pH 7.5) with 2 nM CoraFluor-1-labeled GST VHH (ChromoTek ST-250), then JQ1-FITC was added in serial dilution (cmax = 100 nM) using an HP D300 digital dispenser and allowed to equilibrate for 2 h at room temperature before TR-FRET measurements were taken. Nonspecific signal was determined with 50 μM JQ1-Acid, and data were fitted to a One Site–Specific Binding model in Prism 9. The KD determined from the one-site model was then used in Eq. 1 to adjust for a two-site model due to the dimeric GST protein:1 KD,2-site=KD,1-site×(1+2)
The following assay parameters have been used: (i) 4 nM GST-BRD4(BD1), 4 nM CoraFluor-labeled GST VHH, 20 nM JQ1-FITC in assay buffer, (ii) 4 nM GST-BRD4(BD2), 4 nM CoraFluor-labeled GST VHH, 20 nM JQ1-FITC in assay buffer, (iii) HEK293T or NPC cell lysate at 0.8 mg/mL total protein, 1 nM rabbit anti-BRD4 antibody, 2 nM CoraFluor-labeled anti-rabbit Nano-Secondary, 20 nM JQ1-FITC. For all experiments, test compounds were added in serial dilution (cmax = 10 μM) using an HP D300 digital dispenser and allowed to equilibrate for 2 h at room temperature before TR-FRET measurements were taken. The assay floor (background) was defined with the 10 μM mivebresib dose, and the assay ceiling (top) was defined via a no-inhibitor control. Data were fitted to a four-parameter dose–response model in Prism 9.
For TR-FRET ligand displacement assays with recombinant bromodomains, we have determined the KD of the respective fluorescent tracer (JQ1-FITC) under each assay condition. For endogenous BRD4 in whole cell extract, we have determined the KD,app of JQ1-FITC under each assay condition. Inhibitor KD and KD,app values have been calculated using Cheng-Prusoff principles, outlined in Eq. 2 below:2 KDorKD,app=IC50/1+[S]/KX where IC50 is the measured IC50 value, [S] is the concentration of fluorescent tracer, and KX is the KD or KD,app of the fluorescent tracer for a given condition.

Row | Compound | Kd [µM]
1 | Cn1ccc2c(-c3cc(F)cnc3Oc3ccc(F)cc3)c[nH]c2c1=O [Compound 86B, 3-(5-fluoro-2-(4-fluorophenoxy)pyridin-3-yl)-6-methyl-1,6-dihydro-7H-pyrrolo[2,3-c]pyridin-7-one] | 3.71
2 | Cn1ccc2c(-c3cccnc3Oc3ccc(F)c(F)c3)c[nH]c2c1=O [Compound 81B, 3-(2-(3,4-difluorophenoxy)pyridin-3-yl)-6-methyl-1,6-dihydro-7H-pyrrolo[2,3-c]pyridin-7-one] | 0.375
3 | Cn1ccc2c(-c3cccnc3Sc3ccc(F)cc3)c[nH]c2c1=O [Compound 84B, 3-(2-((4-fluorophenyl)thio)pyridin-3-yl)-6-methyl-1,6-dihydro-7H-pyrrolo[2,3-c]pyridin-7-one] | 0.133
4 | Cn1cc(-c2cccnc2Oc2cc(F)cc(F)c2)c2cc[nH]c2c1=O [Compound 82A, 4-(2-(3,5-difluorophenoxy)pyridin-3-yl)-6-methyl-1,6-dihydro-7H-pyrrolo[2,3-c]pyridin-7-one] | 0.03
5 | Cn1cc(-c2cccnc2Sc2ccc(F)cc2)c2cc[nH]c2c1=O [Compound 84A, 4-(2-((4-fluorophenyl)thio)pyridin-3-yl)-6-methyl-1,6-dihydro-7H-pyrrolo[2,3-c]pyridin-7-one] | 0.199
6 | Cn1ccc2c(-c3cccnc3Oc3ccc(F)cc3)c[nH]c2c1=O [Compound 18B, 3-[2-(4-fluorophenoxy)pyridin-3-yl]-6-methyl-1,6-dihydro-7H-pyrrolo[2,3-c]pyridin-7-one] | 0.158
7 | Cn1ccc2c(-c3cccnc3Oc3cc(F)cc(F)c3)c[nH]c2c1=O [Compound 82B, 3-(2-(3,5-difluorophenoxy)pyridin-3-yl)-6-methyl-1,6-dihydro-7H-pyrrolo[2,3-c]pyridin-7-one] | 0.332
8 | Cn1cc(-c2cccnc2Oc2ccc(F)cc2)c2cc[nH]c2c1=O [Compound 18A, 4-(2-(4-fluorophenoxy)pyridin-3-yl)-6-methyl-1H-pyrrolo[2,3-c]pyridin-7(6H)-one] | 0.024
9 | Cn1ccc2c(-c3cccnc3Nc3ccc(F)cc3)c[nH]c2c1=O [Compound 85B, 3-(2-((4-fluorophenyl)amino)pyridin-3-yl)-6-methyl-1,6-dihydro-7H-pyrrolo[2,3-c]pyridin-7-one] | 2.74
10 | Cn1cc(-c2cc(F)cnc2Oc2ccc(F)cc2)c2cc[nH]c2c1=O [Compound 86A, 4-(5-fluoro-2-(4-fluorophenoxy)pyridin-3-yl)-6-methyl-1,6-dihydro-7H-pyrrolo[2,3-c]pyridin-7-one] | 0.324
11 | Cn1cc(-c2cccnc2Oc2ccc(F)c(F)c2)c2cc[nH]c2c1=O [Compound 81A, 4-(2-(3,4-difluorophenoxy)pyridin-3-yl)-6-methyl-1,6-dihydro-7H-pyrrolo[2,3-c]pyridin-7-one] | 0.034
12 | Cn1cc(-c2cccnc2Nc2ccc(F)cc2)c2cc[nH]c2c1=O [Compound 85A, 4-(2-((4-fluorophenyl)amino)pyridin-3-yl)-6-methyl-1,6-dihydro-7H-pyrrolo[2,3-c]pyridin-7-one] | 0.421
